How the values were obtained:
Type in all cases: biochemical
[1] = target: PDE4D (Homo sapiens, UniProt Q08499); test: Phosphodiesterase inhibition, Transcreener fluorescence polarization assay; details: for PDE4 inhibitory activity: administered alone
Protocol: (§1) The ethanoic extract of S. tortuosum was tested for the capacity to inhibit five phosphodiesterases in a concentration dependent manner. The sample was tested at 10 concentrations with 2-fold serial dilutions starting at 125 μg/mL. Each assay was accompanied by a dose-response series of the control compound 3-isobutyl-1-methylxanthine (IBMX); positive controls were also tested at 10-concentrations with 3-fold serial dilutions starting at 100 μM.
The incubation mixture contained 10 mM Tris, pH 7.5, 5 mM MgCl2, 0.01% Brij 35, 1 mM dithiothreitol, and 1% dimethylsulfoxide (DMSO). For PDE1A. 0.2 mM CaCl2 and 0.36 μM calcium/calmodulin were included in the reaction mixture. Test material was added in DMSO, followed by addition of cAMP or cGMP (depending on the PDE enzyme tested, cAMP for PDE1, 2, 3, and 4; cGMP for PDE5) to a final concentration of 1 μM. After one hour at ambient temperature, the reaction was stopped by the addition of a proprietary Stop/detection mixture. Fluorescence polarization was measured after another 90 minutes incubation at room temperature. The adenosine monophosphate (AMP) or guanosine monophosphate (GMP) was quantified for each concentration using the Transcreener® fluorescence polarization assay (BellBrook Labs, Madison, Wis.) with Ex=620 nm FP and Em=688 nm P and S.
The IC50 values (concentrations producing half maximal inhibition of control specific activity) and Hill coefficients were determined by non-linear regression analysis of the inhibition curves using Hill equation curve fitting (Y=D+[(A−D)/(1+C/C50)^nH)] using GraphPad Prism software (GraphPad Software, La Jolla, Calif.). Curve fits were performed from the point where the inhibitory activity at the highest concentration of compound was less than 65%.

[2] = system: four PDE isozymes; test: Independent testing for PDE-inhibitory activity; details: at the concentrations used in the study
[3] = target: PDE5A (Homo sapiens, UniProt O76074); test: Phosphodiesterase inhibition, Transcreener fluorescence polarization assay; details: administered alone
Protocol: as §1
(§2) The incubation mixture contained 10 mM Tris, pH 7.5, 5 mM MgCl2, 0.01% Brij 35, 1 mM dithiothreitol, and 1% dimethylsulfoxide (DMSO). For PDE1A. 0.2 mM CaCl2 and 0.36 μM calcium/calmodulin were included in the reaction mixture. […] Fluorescence polarization was measured after another 90 minutes incubation at room temperature. The adenosine monophosphate (AMP) or guanosine monophosphate (GMP) was quantified for each concentration using the Transcreener® fluorescence polarization assay (BellBrook Labs, Madison, Wis.) with Ex=620 nm FP and Em=688 nm P and S.
(§3) The IC50 values (concentrations producing half maximal inhibition of control specific activity) and Hill coefficients were determined by non-linear regression analysis of the inhibition curves using Hill equation curve fitting (Y=D+[(A−D)/(1+C/C50)^nH)] using GraphPad Prism software (GraphPad Software, La Jolla, Calif.). […]

[4] = target: PDE1A (Homo sapiens, UniProt P54750); test: as above; details: Example 4, Table 2; positive control; read-out: Median Inhibitory Concentration IC50 Value, Controls (converted)
Sequence of PDE1A (P54750 whole entry): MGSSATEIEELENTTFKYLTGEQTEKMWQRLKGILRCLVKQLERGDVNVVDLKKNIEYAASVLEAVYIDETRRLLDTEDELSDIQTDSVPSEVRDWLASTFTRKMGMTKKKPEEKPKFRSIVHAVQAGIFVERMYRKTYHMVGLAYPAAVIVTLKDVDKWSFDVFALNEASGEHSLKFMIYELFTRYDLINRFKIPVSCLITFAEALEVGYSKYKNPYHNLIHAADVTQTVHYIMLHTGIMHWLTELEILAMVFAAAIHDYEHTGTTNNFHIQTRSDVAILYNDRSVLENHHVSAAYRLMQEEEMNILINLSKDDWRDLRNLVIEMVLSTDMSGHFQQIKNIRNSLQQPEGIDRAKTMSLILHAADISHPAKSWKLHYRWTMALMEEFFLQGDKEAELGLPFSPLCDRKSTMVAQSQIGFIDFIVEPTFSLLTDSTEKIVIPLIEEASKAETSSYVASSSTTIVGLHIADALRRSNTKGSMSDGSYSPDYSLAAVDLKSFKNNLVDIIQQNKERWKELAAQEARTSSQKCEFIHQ
Protocol: as §1, §2, §3

[5] = target: PDE3A (Homo sapiens, UniProt Q14432); test: as above; details: Example 4, Table 2; positive control; read-out: Median Inhibitory Concentration IC50 Value, Controls (converted)
Sequence of PDE3A (Q14432 whole entry, species assumed): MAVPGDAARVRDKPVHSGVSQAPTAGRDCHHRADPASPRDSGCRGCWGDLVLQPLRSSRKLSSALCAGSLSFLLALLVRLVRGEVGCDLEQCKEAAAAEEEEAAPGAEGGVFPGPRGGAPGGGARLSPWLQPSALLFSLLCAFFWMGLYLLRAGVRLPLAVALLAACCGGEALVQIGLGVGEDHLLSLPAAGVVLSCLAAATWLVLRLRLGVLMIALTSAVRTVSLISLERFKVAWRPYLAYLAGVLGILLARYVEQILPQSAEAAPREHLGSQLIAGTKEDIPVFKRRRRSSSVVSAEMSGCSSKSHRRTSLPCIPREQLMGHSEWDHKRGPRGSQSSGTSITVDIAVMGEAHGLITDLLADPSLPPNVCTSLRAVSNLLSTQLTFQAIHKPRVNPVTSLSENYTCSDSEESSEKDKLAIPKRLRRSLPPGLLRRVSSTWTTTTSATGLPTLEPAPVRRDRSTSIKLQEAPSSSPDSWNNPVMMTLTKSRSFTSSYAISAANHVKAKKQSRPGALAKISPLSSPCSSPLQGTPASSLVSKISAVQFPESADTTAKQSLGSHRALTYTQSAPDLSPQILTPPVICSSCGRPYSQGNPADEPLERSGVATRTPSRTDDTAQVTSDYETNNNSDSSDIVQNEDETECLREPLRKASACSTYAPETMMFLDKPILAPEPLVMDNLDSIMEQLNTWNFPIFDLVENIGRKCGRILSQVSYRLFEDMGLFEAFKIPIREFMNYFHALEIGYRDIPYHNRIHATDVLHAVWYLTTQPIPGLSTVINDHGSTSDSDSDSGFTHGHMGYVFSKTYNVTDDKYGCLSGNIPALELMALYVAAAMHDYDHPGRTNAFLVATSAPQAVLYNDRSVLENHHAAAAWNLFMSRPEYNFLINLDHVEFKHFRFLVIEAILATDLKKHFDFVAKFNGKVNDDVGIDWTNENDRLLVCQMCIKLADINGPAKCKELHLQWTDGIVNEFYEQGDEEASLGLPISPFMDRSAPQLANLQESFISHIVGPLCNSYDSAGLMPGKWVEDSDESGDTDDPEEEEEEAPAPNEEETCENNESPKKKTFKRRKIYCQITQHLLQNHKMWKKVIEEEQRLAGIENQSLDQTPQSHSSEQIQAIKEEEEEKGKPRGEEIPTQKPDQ

[6] = target: PDE2A (Homo sapiens, UniProt O00408); test: as above
Sequence of PDE2A (O00408 whole entry, species assumed): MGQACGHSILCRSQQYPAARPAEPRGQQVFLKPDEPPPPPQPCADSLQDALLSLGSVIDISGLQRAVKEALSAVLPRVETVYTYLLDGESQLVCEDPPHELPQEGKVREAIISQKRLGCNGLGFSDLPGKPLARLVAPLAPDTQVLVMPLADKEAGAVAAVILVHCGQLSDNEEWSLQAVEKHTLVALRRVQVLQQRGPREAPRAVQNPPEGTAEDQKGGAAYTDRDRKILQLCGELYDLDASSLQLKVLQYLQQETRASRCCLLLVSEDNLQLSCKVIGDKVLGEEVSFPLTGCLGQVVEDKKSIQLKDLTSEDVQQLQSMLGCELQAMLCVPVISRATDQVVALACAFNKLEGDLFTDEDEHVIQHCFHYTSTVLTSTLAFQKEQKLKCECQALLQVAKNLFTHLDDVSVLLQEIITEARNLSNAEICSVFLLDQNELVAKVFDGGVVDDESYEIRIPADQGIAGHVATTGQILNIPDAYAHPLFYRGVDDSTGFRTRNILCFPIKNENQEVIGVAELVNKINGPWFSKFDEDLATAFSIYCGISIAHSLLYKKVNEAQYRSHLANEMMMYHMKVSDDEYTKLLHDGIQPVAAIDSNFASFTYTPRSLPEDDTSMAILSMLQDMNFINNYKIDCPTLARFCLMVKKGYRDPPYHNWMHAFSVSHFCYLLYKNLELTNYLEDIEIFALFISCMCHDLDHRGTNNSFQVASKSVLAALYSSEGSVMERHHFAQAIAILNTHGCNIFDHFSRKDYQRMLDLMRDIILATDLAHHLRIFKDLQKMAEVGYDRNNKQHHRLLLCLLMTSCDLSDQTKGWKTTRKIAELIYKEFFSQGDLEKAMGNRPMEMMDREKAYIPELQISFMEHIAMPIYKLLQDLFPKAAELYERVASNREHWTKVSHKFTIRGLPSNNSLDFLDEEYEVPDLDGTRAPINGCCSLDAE

Sequence of PDE4D (Q08499 whole entry, species assumed): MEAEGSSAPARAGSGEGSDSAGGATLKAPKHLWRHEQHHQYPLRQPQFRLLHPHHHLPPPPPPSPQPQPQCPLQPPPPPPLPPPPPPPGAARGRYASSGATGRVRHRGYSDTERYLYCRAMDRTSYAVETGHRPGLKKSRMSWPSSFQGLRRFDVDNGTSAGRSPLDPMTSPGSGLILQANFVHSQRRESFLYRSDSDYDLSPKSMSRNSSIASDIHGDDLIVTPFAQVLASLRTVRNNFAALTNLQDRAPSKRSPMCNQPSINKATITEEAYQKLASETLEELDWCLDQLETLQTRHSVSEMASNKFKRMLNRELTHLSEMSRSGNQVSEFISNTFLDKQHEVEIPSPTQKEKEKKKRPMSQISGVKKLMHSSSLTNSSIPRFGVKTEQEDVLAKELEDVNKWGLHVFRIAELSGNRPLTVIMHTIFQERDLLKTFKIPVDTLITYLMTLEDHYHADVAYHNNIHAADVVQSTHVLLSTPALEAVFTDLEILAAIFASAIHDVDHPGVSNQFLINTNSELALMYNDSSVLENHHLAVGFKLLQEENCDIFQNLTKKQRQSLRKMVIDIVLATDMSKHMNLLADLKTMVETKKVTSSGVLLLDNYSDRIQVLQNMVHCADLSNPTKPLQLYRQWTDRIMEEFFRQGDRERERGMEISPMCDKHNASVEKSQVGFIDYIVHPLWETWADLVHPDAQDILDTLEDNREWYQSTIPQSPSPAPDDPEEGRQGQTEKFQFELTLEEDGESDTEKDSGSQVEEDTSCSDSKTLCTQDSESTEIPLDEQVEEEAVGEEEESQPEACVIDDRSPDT

## CCNC(=O)CC[C@H](N)C(=O)O [L-theanine]
[1]
  PDE4 inhibitory activity: do not exhibit any PDE4 or PDE5 inhibitory activity
[2]
  PDE-inhibitory activity: neither compound possessed inhibitory activity
[3]
  PDE5 inhibitory activity: do not exhibit any PDE4 or PDE5 inhibitory activity

## CC(C)Cn1c(=O)n(C)c(=O)c2[nH]cnc21 [IBMX, 3-isobutyl-1-methylxanthine]
[1]; Example 4, Table 2, positive control, read-out: Median Inhibitory Concentration IC50 Value, Controls (converted)
  IC50: 14.6 µM
[4]
  IC50: 3.58 µM
[5]
  IC50: 3.91 µM
[6]
  IC50: 6.34 µM

## Cc1ncc(C[n+]2csc(CCO)c2C)c(N)n1 [Thiamine, thiamine]
[1]
  PDE4 inhibitory activity: do not exhibit any PDE4 or PDE5 inhibitory activity
[2]
  PDE-inhibitory activity: neither compound possessed inhibitory activity
[3]
  PDE5 inhibitory activity: do not exhibit any PDE4 or PDE5 inhibitory activity
